Experimental data taken from patent publication US7875624B2, “Modulating and measuring cellular adhesion” (Novartis Vaccines and Diagnostics, Inc., priority 2004, dated 2011).
Entries after “also recorded” stand apart in the source; their conditions may differ.

Tests used:
[1] = system: KM12L4a human colon tumors; experiment: Antibody immunohistochemistry staining of KM12L4a human colon tumors (Ki67, PARP, caspase-3, CD31); format: in vivo, mouse; conditions: 100 mg/kg for 7 days
[2] = system: VEGF-A; experiment: VEGF-A ELISA in KM12L4a tumor lysates; format: in vivo, mouse; conditions: 100 mg/kg for 7 days; KM12L4a tumors in Nu/nu mice; listed as 4-amino-5-fluoro-3-[6-(4-methylpiperazin-1-yl)-1H-benzimidazol-2-yl]quinolin-2(1)
Text: […]. Tumor cells (2×10^6 KM12L4a) were implanted subcutaneous into the flank of mice and allowed to grow to the desired size before treatment was initiated. […] The tumors were resected and flash frozen in liquid nitrogen.
VEGF-A protein levels in KM12L4a tumor lysates were quantified using a commercially available ELISA kit (R and D Systems, Minneapolis, Minn.) according to the manufacturer's procedures.

[3] = system: αv integrin; experiment: Western blot analysis of HUVECs, αv integrin; conditions: 100 nM; lysates at 0, 16 and 24 hours
[4] = system: soluble VCAM; experiment: Soluble VCAM ELISA in serum of 4T1 tumor bearing mice; conditions: 4T1 breast tumors
[5] = system: ICAM; experiment: Western blot analysis of HUVECs, ICAM; conditions: 100 nM, lysates at 0, 16 and 24 hours
[6] = system: VCAM; experiment: Western blot analysis of HUVECs, VCAM; conditions: 100 nM, lysates at 0, 16 and 24 hours
[7] = system: soluble ICAM; experiment: Soluble ICAM ELISA in serum of 4T1 tumor bearing mice; conditions: 4T1 breast tumors
[8] = system: 4T1 breast tumor cells; experiment: 4T1 spontaneously metastatic mouse breast tumor model: subcutaneous tumor growth, liver and lung metastases; format: in vivo
[9] = system: α5 integrin; experiment: Western blot analysis of HUVECs, α5 integrin; conditions: 100 nM, lysates at 0, 16 and 24 hours
[10] = system: MMP-9; experiment: Zymography for MMP-9 activity in KM12L4a human colon xenografts; format: in vivo, mouse; conditions: 100 mg/kg for 7 days; KM12L4a tumors in Nu/nu mice; listed as 4-amino-5-fluoro-3-[6-(4-methylpiperazin-1-yl)-1H-benzimidazol-2-yl]quinolin-2(1)
Protocol: Female Nu/nu mice (6-8 weeks old, 18-22 grams) were obtained from Charles River Laboratories (Wilmington, Mass.). Tumor cells (2×10^6 KM12L4a) were implanted subcutaneous into the flank of mice and allowed to grow to the desired size before treatment was initiated. […] The tumors were resected and flash frozen in liquid nitrogen.
After electrophoresis, gels were washed twice for 15 minutes in 2.5% Triton X-100, incubated overnight at 37° C. in 50 mM Tris-HCl and 10 mM CaCl2, pH 7.6, and stained with 0.5% Comassie Blue and destained with 50% methanol.

[11] = 100 or 150 mg/kg orally, daily for 18 days
[12] = varying amounts (10-150 mg/kg), 18 days
[13] = listed as 4-amino-5-fluoro-3-[6-(4-methylpiperazin-1-yl)-1H-benzimidazol-2-yl]quinolin-2(1)
[14] = 10 mpk orally, daily for 18 days
[15] = 30 mpk orally, daily for 18 days
[16] = 60 mpk orally, daily for 18 days
[17] = 100 mpk orally, daily for 18 days
[18] = 150 mpk orally, daily for 18 days
[19] = orally, daily, after 18 days of dosing, BALB/C mice

CN1CCN(c2ccc3nc(-c4c(N)c5c(F)cccc5[nH]c4=O)[nH]c3c2)CC1 [Compound 1]
apoptosis (PARP cleavage and caspase-3) [1]: induced apoptosis | tumor cell proliferation (Ki67) [1]: decreased tumor cell proliferation | vascular density (CD31) [1]: reduced vascular density | VEGF production in tumors (ELISA) [2]: reduced VEGF production; also recorded: decrease | expression of αv integrin in HUVECs [3]: not αν integrin | inhibition of soluble VCAM in serum [4, 11]: 44-47% | soluble VCAM in serum, effect in words [4, 12]: dose-dependent reduction | expression of ICAM in HUVECs [5]: decreased | expression of ICAM in HUVECs [5, 13]: decrease | expression of VCAM in HUVECs [6]: decreased | expression of VCAM in HUVECs [6, 13]: decrease | inhibition of soluble ICAM in serum [7, 11]: greater than 70% | soluble ICAM in serum, effect in words [7, 12]: dose-dependent reduction | growth of the subcutaneous tumor inhibited compared to control ([8]; 10-150 mg/kg orally, daily for 18 days, BALB/C mice): 40-80% | # of Liver Metastases Mean +/− SD [8, 14]: 22.0 +/− 32.3 | Liver Metastases: Incidence of Metastases [8, 14]: 7/8 | # of Liver Metastases Mean +/− SD [8, 15]: 3.1 +/− 3.5 | Liver Metastases: Incidence of Metastases [8, 15]: 6/10 | # of Liver Metastases Mean +/− SD [8, 16]: 0.7 +/− 0.9 | Liver Metastases: Incidence of Metastases [8, 16]: 5/10 | # of Liver Metastases Mean +/− SD [8, 17]: 4.1 +/− 13.0 | Liver Metastases: Incidence of Metastases [8, 17]: 1/10 | # of Liver Metastases Mean +/− SD [8, 18]: 0.0 +/− 0.0 | Liver Metastases: Incidence of Metastases [8, 18]: 0/9 | liver metastases inhibition [8, 19]: completely inhibited | lung metastases inhibited [8, 19]: 60-97% | expression of α5 integrin in HUVECs [9]: decreased | expression of α5 integrin in HUVECs [9, 13]: decrease | MMP-9 activity in tumors (zymography) [10]: decreased MMP-9 activity; also recorded: decrease
